Measurements: patent US20090104159A1, “Vascular/Lymphatic Endothelial Cells” (priority 2005, published 2009)

Tests used:
human MAPCs = conditions: about 10 ng/mL LIF, till 25 cell doublings; cited from earlier work
murine MAPCs = conditions: about 10 ng/mL LIF added to PDGF-BB and EGF; cited from earlier work
hMAPCs [1] = assay: Blocking of Patched and Notch pathways during hMAPC-EC differentiation; assay type: cell-based, human; conditions: hMAPC-ECs, 14 days, exogenous VEGF present, cyclopamine 5 μM; for expression of arterial EC markers Hey-2, EphrinB1 and EphrinB2: L-685,458 1 μM
Experimental: For real time RT-PCR Syber Green and Taq Man® methods were used as described (Hong et al., 2004). GAPDH was used as a housekeeping control. […] Primers used for both RT-PCR and real time PCR are shown below in Table 2.
Blocking of Patched and Notch pathways was performed using cyclopamine Watkins et al., 2003) (Biomol) at 5 μM (added every 4-5 days with media change) and 1 μM of esecretase inhibitor L-685,458 (Bachem) (Dahlqvist et al., 2003), respectively. Exogenous VEGF was present in the media for the blocking experiments (no exogenous Shh or Dll-4).

mouse MAPCs = assay: Endothelial differentiation of mouse MAPCs (qRT-PCR); assay type: cell-based; conditions: Shh-antibody 0.5 micrograms/ml, cyclopamine 10 micromolar
Experimental: (§1) Glass 4-well chambers with were coated with 1 μg/ml human fibronectin (Sigma, F0895) for about 30 minutes to about 1 hour in the 37° C. incubator. The cells were collected (with the use of 0.05% trypsin), counted and resuspended at 120K/ml in mouse MAPC culture media (see above). The fibronectin was taken off and the cells were seeded (1 ml per well) (=Day 0). The cells were then incubated at 37° C., 5% O2 overnight. […] The media was changed 50% (using differentiation media) on day 4 and from then on, media changed 50% every other day. For rat cells, the differentiation media contained 2% serum.

rat MAPCs = assay: Endothelial differentiation of rat MAPCs (qRT-PCR); assay type: cell-based; conditions: Shh-antibody 0.5 micrograms/ml, cyclopamine 10 micromolar
Experimental: as §1

hMAPCs [2] = assay: Smooth muscle differentiation from hMAPCs; assay type: cell-based, human; conditions: hMAPCs treated for 6 days, Q-RT-PCR and immunofluorescence
Experimental: Smooth muscle differentiation: hMAPCs were plated at 1×10^3 cells/cm^2 in growth media (58% low-glucose DMEM (Gibco BRL), 40% MCDB-201 (Sigma), 2% fetal calf serum (FCS) (Biochrom), ITS+1 (Sigma), 10^−8 M dexamethasone (Sigma), 10^−8 M ascorbic acid 2-phosphate (Sigma), 100 U penicillin, 1000 U streptomycin (Gibco BRL) and 10 ng/mL each of PDGF-BB and EGF during 24 hours and then media was exchanged with the same basal media, without FCS, EGF but now with 10 ng/ml TGF-β1. Media was changed every 4-5 days.

hMAPC = assay: Lymphatic differentiation of hMAPC (real time PCR of Prox-1, Lyve-1, podoplanin); assay type: cell-based, human; conditions: compared with VEGF165 alone
Experimental: Arterial and/or venous differentiation was induced by addition of different combinations of the following growth factors: VEGF121 was used at 100 ng/ml and VEGF165 in different combinations with Delta-like 4 (Dll-4), Jagged-1, or Shh (all from R&DSystems) all at 100 ng/ml. Lymphatic differentiation was induced by addition of 100 ng/ml VEGF-C(R&DSystems) and 20 ng/ml bFGF (Sigma). Except for VEGF121, which was added alone, the other factors were added at the same time as VEGF165 in the various described combinations.
For real time RT-PCR Syber Green and Taq Man® methods were used as described (Hong et al., 2004). GAPDH was used as a housekeeping control. Results are presented as fold increase in comparison with the expression of the gene in undifferentiated cells or as percentage of positive control (cord blood derived venous and arterial ECs) (Jaffe et al., 1973; Neuhaus et al., 2003). Primers used for both RT-PCR and real time PCR are shown below in Table 2.

LIF: leukemia inhibitory factor, culture supplement
short-term cell growth (human MAPCs): did not affect short-term cell growth
cell growth (murine MAPCs): significantly enhanced cell growth

CC(C)C[C@H](NC(=O)[C@H](Cc1ccccc1)C[C@@H](O)[C@H](Cc1ccccc1)NC(=O)OC(C)(C)C)C(=O)N[C@@H](Cc1ccccc1)C(N)=O [γ-secretase inhibitor, L-685,458]
expression of arterial EC markers Hey-2, EphrinB1 and EphrinB2 (hMAPCs [1]): even more pronounced attenuation

CC1=C2C[C@H]3[C@@H](CC=C4C[C@@H](O)CC[C@@]43C)[C@@H]2CC[C@]12O[C@@H]1C[C@H](C)CN[C@H]1[C@H]2C [cyclopamine]
arterial component in the cell cultures (mouse MAPCs): decrease the arterial component
expression of the venous marker EphB4 (hMAPCs [1]): slightly increased
expression of arterial EC markers Hey-2, EphrinB1 and EphrinB2 (hMAPCs [1]): significantly decreased
arterial component in the cell cultures (rat MAPCs): decrease the arterial component

TGF-β1: growth factor, 10 ng/ml, used for smooth muscle differentiation
expression of SMC markers (hMAPCs [2]): upregulated expression of SMC markers

B1: VEGF-C: VEGF family growth factor (R&DSystems) used for lymphatic differentiation (protein, UniProt P49767 112-227, looked up)
Vascular endothelial growth …: AHYNTEILKSIDNEWRKTQCMPREVCIDVGKEFGVATNTFFKPPCVSVYRCGGCCNSEGLQCMNTSTSYLSKTLFEITVPLSQGPKPVTISFANHTSCRCMSKLDVYRQVHSIIRR
expression of lymphatic genes Prox-1, Lyve-1 and podoplanin (hMAPC): does not enhance expression of these genes more than VEGF165 alone
